Assay results from patent US8779001B2, “Stat3 inhibitors” (The United States of America National Institute of Health …, priority 2008, dated 2014).

Columns and labels:
Stat1 = molecular target: T1, Stat1 (Homo sapiens, UniProt P42224); test: Immunoblot assay of IFN-γ-stimulated Stat1 phosphorylation in HepG2 cells; type: cell-based; details: HepG2, compound 300 μM, 1 hour, IFN-γ 30 ng/ml 30 min
T1 construct: endogenous in cells; host or cells: HepG2
T1 sequence (P42224 1-750): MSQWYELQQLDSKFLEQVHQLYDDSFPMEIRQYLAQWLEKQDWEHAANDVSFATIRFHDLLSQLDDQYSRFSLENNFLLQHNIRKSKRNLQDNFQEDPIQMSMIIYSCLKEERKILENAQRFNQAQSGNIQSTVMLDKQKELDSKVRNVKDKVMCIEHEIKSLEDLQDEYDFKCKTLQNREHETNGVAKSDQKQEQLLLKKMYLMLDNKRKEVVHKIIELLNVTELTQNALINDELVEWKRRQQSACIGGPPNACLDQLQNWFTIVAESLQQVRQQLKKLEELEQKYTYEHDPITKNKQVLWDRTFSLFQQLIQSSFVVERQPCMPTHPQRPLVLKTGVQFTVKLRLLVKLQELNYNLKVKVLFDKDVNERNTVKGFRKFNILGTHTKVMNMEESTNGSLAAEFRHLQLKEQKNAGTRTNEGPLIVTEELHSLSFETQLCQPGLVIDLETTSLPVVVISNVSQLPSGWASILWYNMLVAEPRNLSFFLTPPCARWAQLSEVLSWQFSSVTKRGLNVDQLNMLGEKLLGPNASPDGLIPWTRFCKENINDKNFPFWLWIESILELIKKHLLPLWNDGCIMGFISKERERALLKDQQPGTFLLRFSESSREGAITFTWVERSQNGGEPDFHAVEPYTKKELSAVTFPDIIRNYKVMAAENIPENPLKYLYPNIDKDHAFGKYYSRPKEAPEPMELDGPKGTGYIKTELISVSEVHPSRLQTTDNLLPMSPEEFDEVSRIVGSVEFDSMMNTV
Description: HepG2 cells were pretreated with DMSO alone or DMSO containing each of the compounds at a concentration of 300 μM for 60 min. Cells were then stimulated with IFN-γ (30 ng/ml) for 30 min. Protein extracts of cells were separated by SDS-PAGE and immunoblotted serially with antibodies to pStat1, total Stat1 and β-actin. Blots were stripped between each immunoblotting. The results shown are representative of 2 or more experiments.
Immunoblot assay. The human hepatocellular carcinoma cell line (HepG2) was grown in 6-well plates under standard conditions. Cells were pretreated with compounds (0, 1, 3, 10, 30, 100 and 300 uM) for 1 hour then stimulated under optimal conditions with either interferon gamma (IFN-γ; 30 ng/ml for 30 min) to activate Stat1 or interleukin-6 (IL-6; 30 ng/ml for 30 min) to activate Stat3 (30-31). Cultures were then harvested and proteins extracted using high-salt buffer, as described (Shao et al., 2006). Briefly, extracts were mixed with 2× sodium dodecyl sulfate (SDS) sample buffer (125 mmol/L Tris-HCL pH 6.8; 4% SDS; 20% glycerol; 10% 2-mercaptoethanol) at a 1:1 ratio and heated for 5 minutes at 100° C. Proteins (20 μg) were separated by 7.5% SDS-PAGE and transferred to polyvinylidene fluoride (PVDF) membrane (Millipore, Waltham, Mass.) and immunoblotted. Prestained molecular weight markers (Biorad, Hercules, Calif.) were included in each gel. Membranes were probed serially with antibody against Stat1 pY^701 or Stat3 pY^705 followed by antibody against Stat1 or Stat3 (Transduction labs, Lexington, Ky.) then antibody against β-actin (Abeam, Cambridge, Mass.). Membranes were stripped between antibody probing using Restore™ Western Blot Stripping Buffer (Thermo Fisher Scientific Inc., Waltham, Mass.) per the manufacturer's instructions. Horseradish peroxidase-conjugated goat-anti-mouse IgG was used as the secondary antibody (Invitrogen Carlsbad, Calif.) and the membranes were developed with enhanced chemiluminescence (ECL) detection system (Amersham Life Sciences Inc.; Arlington Heights, Ill.).
While Stat3 contributes to oncogenesis, in part, through inhibition of apoptosis, Stat1 is anti-oncogenic; it mediates the apoptotic effects of interferons and contributes to tumor surveillance (Kaplan et al., 1998; Ramana et al., 2000). Consequently, compounds that target Stat3 while sparing Stat1, leaving its anti-oncogenic functions unopposed, may result in a synergistic anti-tumor effect. […] Thus, five of the six exemplary compounds identified were selective and inhibited ligand-stimulated phosphorylation of Stat3 but not Stat1.
EXP IIC. Ligand-mediated pStat3 and pStat1 inhibition assays. […] Briefly, human hepatocellular carcinoma cells (HepG2) are grown in 6-well plates and pretreated with compounds (0, 0.1, 0.3, 1, 3, 10, 30, 100 μM) for 1 hour then stimulated under optimal conditions with either interleukin-6 (IL-6; 30 ng/ml for 30 min) to activate Stat3 or interferon gamma (IFN-γ, 30 ng/ml for 30 min) to activate Stat1. Cells are harvested and proteins extracted using high-salt buffer, mixed with 2× sodium dodecyl sulfate (SDS) sample buffer (125 mmol/L Tris-HCL pH 6.8; 4% SDS; 20% glycerol; 10% 2-mercaptoethanol) at a 1:1 ratio then heated for 5 minutes at 100° C. Proteins (20 μg) are separated by 7.5% SDS-PAGE and transferred to polyvinylidene fluoride (PVDF) membrane (Millipore, Waltham, Mass.) and immunoblotted. Membranes are probed serially with antibody against Stat1 pY701 or Stat3 pY705 followed by antibody against Stat1 or Stat3 (Transduction labs, Lexington, Ky.) then antibody against β-actin (Abcam, Cambridge, Mass.). Membranes are stripped between antibody probings using Restore™ Western Blot Stripping Buffer (Thermo Fisher Scientific Inc., Waltham, Mass.) per the manufacturer's instructions. […]

Stat3:hSIE complexes = molecular target: T2, Stat3:hSIE complexes (Homo sapiens, UniProt P40763); test: Electrophoretic mobility shift assay (EMSA) of Stat3 DNA binding; type: biochemical; details: extracts of IL-6-stimulated HepG2 cells, compound 300 μM, 60 minutes at 37° C
T2 construct: endogenous in cells; host or cells: HepG2
T2 sequence (P40763 2-770 limits assumed, one chain of several): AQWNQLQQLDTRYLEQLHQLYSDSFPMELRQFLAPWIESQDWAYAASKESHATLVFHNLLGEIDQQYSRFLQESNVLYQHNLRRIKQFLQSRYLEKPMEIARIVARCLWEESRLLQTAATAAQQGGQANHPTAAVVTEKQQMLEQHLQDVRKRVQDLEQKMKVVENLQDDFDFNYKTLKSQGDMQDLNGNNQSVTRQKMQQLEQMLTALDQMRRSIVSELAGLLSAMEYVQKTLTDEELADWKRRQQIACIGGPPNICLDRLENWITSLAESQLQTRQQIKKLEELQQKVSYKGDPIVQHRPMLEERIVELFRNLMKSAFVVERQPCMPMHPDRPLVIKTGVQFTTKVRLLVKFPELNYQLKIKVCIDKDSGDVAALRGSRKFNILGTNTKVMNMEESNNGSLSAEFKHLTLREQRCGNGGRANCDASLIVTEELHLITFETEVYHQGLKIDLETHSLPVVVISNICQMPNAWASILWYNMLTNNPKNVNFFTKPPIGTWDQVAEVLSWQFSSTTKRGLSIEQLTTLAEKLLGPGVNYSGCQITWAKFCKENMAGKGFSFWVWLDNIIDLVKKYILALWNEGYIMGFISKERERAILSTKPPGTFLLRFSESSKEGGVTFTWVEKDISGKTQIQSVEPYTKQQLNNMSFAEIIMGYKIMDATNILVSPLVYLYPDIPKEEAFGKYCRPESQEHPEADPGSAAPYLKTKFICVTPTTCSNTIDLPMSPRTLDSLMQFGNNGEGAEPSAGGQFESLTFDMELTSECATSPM
Description: Electrophoretic mobility shift assays were performed using whole-cell extracts prepared from HepG2 cells without and with stimulation with IL-6 (30 ng/ml) for 30 min. Protein (20 μg) was incubated with radiolabeled duplex oligonucleotide (hSIE) and DMSO without or with the indicated compounds (300 uM) for 60 minutes at 37° C. then separated by PAGE. The gel was dried and autoradiographed; the portion of the gel corresponding to the Stat3-bound hSIE band is shown. Data shown are representative of 2 studies.
Electrophoretic Mobility Shift Assay (EMSA): EMSA was performed using the hSIE radiolabeled duplex oligonucleotide as a probe as described (Tweardy et al., 1995). Briefly, high salt extracts were prepared from HepG2 cells incubated without or with IL-6 (30 ng/ml) for 30 minutes. Protein concentration was determined by Bradford Assay and 20 ug of extract was incubated with compound (300 uM) for 60 minutes at 37° C. […] Gels were dried and autoradiographed.
Once in the nucleus, Stat3 dimers bind to specific DNA elements to activate and, in some instances, repress gene transcription. […] Compounds that bind to the phosphopeptide-binding site of Stat3 might be expected to do the same. […]

breast cancer cell lines = test: Breast cancer cell line apoptosis assay, statements over several cell lines; type: cell-based, human; details: five breast cancer cell lines
Description: MDA-MB-468 (panel A), MDA-MB-231 (panel B), MDA-MB-435 (panel C), MCF7 (panel D) and MDA-MB-453 (panel E) were seeded in 12-well plates, grown overnight then treated with the indicated compound for 24 hr. Cells were centrifuged and the supernatants assayed for nucleosome levels by ELISA.
Human breast carcinoma cell lines MDA-MB-468, MDA-MB-231, MBA-MD-435 and MCF7 were kindly provided by Dr. Powel H. Brown (Breast Cancer Center, Baylor College of Medicine). Breast cancer cell line, MDA-MB-453 was kindly provided by Dr. Shou Jiang (Breast Cancer Center, Baylor College of Medicine). […] Cells were seeded at 2,500 cells/cm^2 into 12-well plates. […] At 24 hours, treatment was terminated by removing the medium from each well. […] The percent maximum nucleosome level was calculated by dividing the nucleosome level by the maximum nucleosome level achieved in the assay and multiplying by 100.

[1] = system: triple negative human breast cancer xenograft; test: Two-day pilot triple-negative human breast cancer xenograft experiment, MSFE measured; type: in vivo, SCID Beige mice; details: 250 mcg, two days of treatment, P<0.05
Text: The mice were sacrificed after two days and MSFE measured.
A tumor line derived from a “triple negative” (ER-negative, PgR-negative, and HER-2 negative) human breast cancer biopsy specimen was transplanted into immunocompromised SCID Beige mice. The animals (n=3) received two doses of vehicle control, 2 different doses of Cpd 188 (125 or 250 mcg), a G-quartet oligodeoxynucleotide (GQ-ODN, T40214; GQ-I) previously determined to target Stat3 (Jing et al., 2004) and a control non-specific ODN (GQ-II) each at two doses (125 or 250 mcg). The animals were sacrificed after only two days of treatment, and MSFE determined.

[2] = system: breast cancer cells with constitutively activated Stat3; details: Schust et al., 2006; cited from earlier work
Stat3 = Stat3 (Homo sapiens, UniProt P40763); details: fluorescence polarization, Coleman et al., 2005; read-out: IC50 inhibition of Stat3 binding to pY-peptide; cited from earlier work
Stat3, sequence (P40763 whole entry): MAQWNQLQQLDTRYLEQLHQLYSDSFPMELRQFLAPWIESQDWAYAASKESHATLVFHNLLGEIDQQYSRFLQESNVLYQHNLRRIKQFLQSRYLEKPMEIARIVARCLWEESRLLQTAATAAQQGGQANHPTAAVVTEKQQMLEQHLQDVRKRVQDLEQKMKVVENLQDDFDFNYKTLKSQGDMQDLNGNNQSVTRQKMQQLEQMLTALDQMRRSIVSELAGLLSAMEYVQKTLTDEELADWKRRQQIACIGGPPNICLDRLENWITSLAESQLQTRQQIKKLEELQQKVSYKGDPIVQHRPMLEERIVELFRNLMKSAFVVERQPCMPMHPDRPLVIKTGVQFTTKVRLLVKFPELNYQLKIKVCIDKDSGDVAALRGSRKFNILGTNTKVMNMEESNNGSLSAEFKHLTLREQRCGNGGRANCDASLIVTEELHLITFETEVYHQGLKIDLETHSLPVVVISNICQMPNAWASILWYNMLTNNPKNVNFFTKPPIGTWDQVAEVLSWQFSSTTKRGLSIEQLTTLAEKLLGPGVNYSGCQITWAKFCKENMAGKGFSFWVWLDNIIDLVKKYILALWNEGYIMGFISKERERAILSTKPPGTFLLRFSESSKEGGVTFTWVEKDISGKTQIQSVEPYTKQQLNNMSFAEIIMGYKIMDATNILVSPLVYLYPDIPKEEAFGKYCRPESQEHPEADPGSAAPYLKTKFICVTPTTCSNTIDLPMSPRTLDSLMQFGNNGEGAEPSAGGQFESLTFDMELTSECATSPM

O=C(O)c1ccc(C=CC(=O)c2ccc3c(c2)OCCO3)cc1 [Cpd3, 4-[3-(2,3-dihydro-1,4-benzodioxin-6-yl)-3-oxo-1-propen-1-yl]benzoic acid]
effect on IFN-γ-stimulated Stat1 phosphorylation (Stat1): did not
effect on Stat3:hSIE band intensity (EMSA) (Stat3:hSIE complexes): reduced the amount of hSIE shifted by half or greater

CCOc1cc(C=C2C(=O)c3ccccc3C2=O)cc(Cl)c1OCc1cccc(C(=O)O)c1 [Cpd3-2, 3-({2-chloro-4-[(1,3-dioxo-1,3-dihydro-2H-inden-2-ylidene)methyl]-6-ethoxyphenoxy}methyl)benzoic acid]
effect on IFN-γ-stimulated Stat1 phosphorylation (Stat1): did not
induction of apoptosis of any of the breast cancer cell lines tested (breast cancer cell lines): neither Cpd3-2 nor Cpd3-7 induced apoptosis

COC(=O)Cc1c(C)c2ccc(OCc3ccc(C(=O)OC)cc3)c(C)c2oc1=O [Cpd3-7, methyl 4-({[3-(2-methyoxy-2-oxoethyl)-4,8-dimethyl-2-oxo-2H-chromen-7-yl]oxy}methyl)benzoate]
effect on IFN-γ-stimulated Stat1 phosphorylation (Stat1): did not
effect on Stat3:hSIE band intensity (EMSA) (Stat3:hSIE complexes): reduced the amount of hSIE shifted by half or greater
induction of apoptosis of any of the breast cancer cell lines tested (breast cancer cell lines): neither Cpd3-2 nor Cpd3-7 induced apoptosis

CCN1C(=O)C(=Cc2ccc(-c3ccc(C(=O)O)cc3)o2)SC1=S [Cpd30, 4{5-[(3-ethyl-4-oxo-2-thioxo-1,3-thiazolidin-5-ylidene)methyl]-2-furyl}benzoic acid]
effect on IFN-γ-stimulated Stat1 phosphorylation (Stat1): did not

CCN1C(=O)C(=Cc2ccc(-c3cc(C(=O)O)ccc3Cl)o2)C(=O)N(CC)C1=S [Cpd30-12, 4-chloro-3-{5-[(1,3-diethyl-4,6-dioxo-2-thioxotetrahydro-5(2H)-pyrimidinylidene)methyl]-2-furyl}benzoic acid]
effect on IFN-γ-stimulated Stat1 phosphorylation (Stat1): blocked Stat1 phosphorylation

O=C(O)CSc1cc(NS(=O)(=O)c2ccc(C(=O)O)cc2)c2ccccc2c1O [Cpd188, 4-[({3-[(carboxymethyl)thio]-4-hydroxy-1-naphthyl}amino)sulfonyl]benzoic acid]
effect on IFN-γ-stimulated Stat1 phosphorylation (Stat1): did not
reduction in MSFE compared to control [1]: significant reduction in MSFE

O=[N+]([O-])c1ccc2c(c1)S(=O)(=O)C=C2 [Stattic]
concentration range inducing apoptosis / Stat3 inhibitory effects [2]: 5 to 20 µM

hydrocinnamoyl-Tyr(PO3H2)-Leu-cis-3,4-methanoPro-Gln-NHB
IC50 (Stat3): 125 nM
